# In ChEMBL document CHEMBL6083212, “The synthesis and bioactivities of ROCK2 inhibitors with 1,2-dithiolan-3-yl motif” (RSC Med Chem, 2024):
# Calls of active or inactive are those of the source. The calls are words filed in the database; no cut-off is given here.
# What was measured:
# [1] = Cytotoxicity against mouse BV-2 cells by MTT assay; format: toxicity, cell-based; details: read-out: TC50 (the source's name)
# [2] = Antioxidant activity assessed as DPPH radical scavenging activity at 1 mM incubated for 30 mins by absorbance based analysis; format: functional
# [3] = test system: BV-2; assay: Antiinflammatory activity in LPS-induced mouse BV-2 cells assessed as inhibition of TNF-alpha production at […] incubated for 24 hrs by ELISA analysis; format: functional; parameters: dose or concentration left out as unconfirmed
# [4] = test system: BV-2; assay: Antiinflammatory activity in LPS-induced mouse BV-2 cells assessed as inhibition of IL-6 production at […] incubated for 24 hrs by ELISA analysis; format: functional; parameters: dose or concentration left out as unconfirmed
# [5] = Cmax in Sprague-Dawley rat at 10 mg/kg, ip measured upto 24 hrs by LC-MS analysis; format: ADME, organism-based; details: in vivo
# [6] = Cmax in Sprague-Dawley rat at 10 mg/kg, iv measured upto 24 hrs by LC-MS analysis; format: ADME, organism-based; details: in vivo
# [7] = AUC (0 to t) in Sprague-Dawley rat at 10 mg/kg, ip measured upto 24 hrs by LC-MS analysis; format: ADME, organism-based; details: in vivo
# [8] = AUC (0 to t) in Sprague-Dawley rat at 10 mg/kg, iv measured upto 24 hrs by LC-MS analysis; format: ADME, organism-based; details: in vivo
# [9] = AUC (0 to infinity) in Sprague-Dawley rat at 10 mg/kg, ip measured upto 24 hrs by LC-MS analysis; format: ADME, organism-based; details: in vivo
# [10] = AUC (0 to infinity) in Sprague-Dawley rat at 10 mg/kg, iv measured upto 24 hrs by LC-MS analysis; format: ADME, organism-based; details: in vivo
# [11] = Tmax in Sprague-Dawley rat at 10 mg/kg, ip measured upto 24 hrs by LC-MS analysis; format: ADME, organism-based; details: in vivo
# [12] = Tmax in Sprague-Dawley rat at 10 mg/kg, iv measured upto 24 hrs by LC-MS analysis; format: ADME, organism-based; details: in vivo
# [13] = Apparent volume of distribution during terminal phase in Sprague-Dawley rat at 10 mg/kg, ip measured upto 24 hrs by LC-MS analysis; format: ADME, organism-based; details: in vivo, read-out: Vz/F
# [14] = Apparent volume of distribution during terminal phase in Sprague-Dawley rat at 10 mg/kg, iv measured upto 24 hrs by LC-MS analysis; format: ADME, organism-based; details: in vivo
# [15] = Apparent clearance during terminal phase in Sprague-Dawley rat at 10 mg/kg, ip measured upto 24 hrs by LC-MS analysis; format: ADME, organism-based; details: in vivo, read-out: CLz/F (converted)
# [16] = Apparent clearance during terminal phase in Sprague-Dawley rat at 10 mg/kg, iv measured upto 24 hrs by LC-MS analysis; format: ADME, organism-based; details: in vivo
# [17] = Oral bioavailability in Sprague-Dawley rat at 10 mg/kg measured upto 24 hrs by LC-MS analysis; format: ADME, organism-based; details: in vivo
# [18] = Acute toxicity in C57BL/6 mouse assessed as change in mental state at 50 mg/kg, iv measured for 14 days; format: organism-based; details: in vivo, 336 h, time 14 day
# [19] = Acute toxicity in C57BL/6 mouse assessed as change in body weight at 50 mg/kg, iv measured for 14 days; format: organism-based; details: in vivo, 336 h, time 14 day
# [20] = Acute toxicity in C57BL/6 mouse assessed as change in organ index at 50 mg/kg, iv measured for 14 days; format: organism-based; details: in vivo, 336 h, time 14 day
# [21] = test system: Mus musculus; assay: Anti-inflammatory activity in CFA-induced acute arthritis C57BL/6 mouse model assessed as effect on foot swelling at 5 to 10 mg/kg, iv measured for 12 hrs; format: functional, organism-based; details: dose 5-10 mg/kg
# [22] = Drug metabolism in rat plasma assessed as 5-(1-oxodithiolan-3-yl)pentyl 4-(5-isoquinolylsulfonyl)-1,4-diazepane-1-carboxylate metabolite formation at 10 mg/kg, iv; format: ADME, organism-based; details: in vivo
# [23] = Drug metabolism in rat plasma assessed as 5-(1,2-dioxodithiolan-3-yl)pentyl 4-(5-isoquinolylsulfonyl)-1,4-diazepane-1-carboxylate metabolite formation at 10 mg/kg, iv; format: ADME, organism-based; details: in vivo
# [24] = Drug metabolism in rat plasma assessed as 5-(1,1-dioxodithiolan-3-yl)pentyl 4-(5-isoquinolylsulfonyl)-1,4-diazepane-1-carboxylate metabolite formation at 10 mg/kg, iv; format: ADME, organism-based; details: in vivo
smiles,measurement,setting,value
CC(=O)Oc1ccc(/C=C/C(=O)N2CCCN(S(=O)(=O)c3cccc4cnccc34)CC2)cc1,CC50,[1],> 100 µM
same,Activity,[2],29.2%
same,inhibition,[3],49.5%
same,inhibition,[4],26.3%
O=C(CCCCC1CCSS1)N1CCN(C(c2ccc(F)cc2)c2ccc(F)cc2)CC1 (stereo unspecified),CC50,[1],> 100 µM
same,Activity,[2],92%
same,inhibition,[3],70.7%
same,inhibition,[4],53.8%
same,Cmax,[5],9950 ng/mL
same,Cmax,[6],20000 ng/mL
same,AUC(0-t) at 24 h,[7],1630 ng·h/mL
same,AUC(0-t) at 24 h,[8],3350 ng·h/mL
same,AUC(0-inf),[9],1660 ng·h/mL
same,AUC(0-inf),[10],3360 ng·h/mL
same,Tmax,[11],4.98 min
same,Tmax,[12],4.98 min
same,Vd/F,[13],6.1 L/kg
same,Vz/F,[14],0.7 L/kg
same,CL/F,[15],102 mL/min/kg
same,CLz/F,[16],48.3 mL/min/kg
same,bioavailability,[17],48.5%
same,Activity,[18],Non-toxic
same,Activity,[19],Non-toxic
same,Activity,[20],Non-toxic
same,Activity,[21],Active
COc1cc(/C=C/C(=O)N2CCCN(S(=O)(=O)c3cccc4cnccc34)CC2)ccc1OCCCO[N+](=O)[O-],CC50,[1],> 100 µM
same,Activity,[2],19.1%
same,inhibition,[3],30.9%
same,inhibition,[4],6.42%
CC(=O)Oc1ccc(/C=C/C(=O)N2CCCN(S(=O)(=O)c3cccc4cnccc34)CC2)cc1OC(C)=O,CC50,[1],44.2 µM
same,Activity,[2],82.4%
same,inhibition,[3],17.8%
same,inhibition,[4],22.6%
CC1(C)C=Cc2cc(/C=C/C(=O)N3CCCN(S(=O)(=O)c4cccc5cnccc45)CC3)ccc2O1,CC50,[1],64.4 µM
same,Activity,[2],33.8%
same,inhibition,[3],38.5%
same,inhibition,[4],inactive
O=S(=O)(c1cccc2cnccc12)N1CCN(C(c2ccccc2)c2ccccc2)CC1,CC50,[1],> 20 µM
same,Activity,[2],26.5%
same,inhibition,[3],25.8%
same,inhibition,[4],inactive
COc1cc(/C=C/C(=O)N2CCCN(S(=O)(=O)c3cccc4cnccc34)CC2)ccc1O,CC50,[1],> 100 µM
same,Activity,[2],93%
same,inhibition,[3],0.08%
same,inhibition,[4],inactive
COc1cc(/C=C/C(=O)OCCCCCC2CCSS2)ccc1OC(C)=O (stereo unspecified),CC50,[1],> 100 µM
same,Activity,[2],26.1%
same,inhibition,[3],inactive
same,inhibition,[4],inactive
COc1cc(/C=C/C(=O)N2CCCN(S(=O)(=O)c3cccc4cnccc34)CC2)ccc1OC(C)=O,CC50,[1],> 100 µM
same,Activity,[2],28.7%
same,inhibition,[3],inactive
same,inhibition,[4],inactive
CC1(C)C=Cc2cc(/C=C/C(=O)N3CCN(S(=O)(=O)c4cccc5cnccc45)CC3)ccc2O1,CC50,[1],> 100 µM
same,Activity,[2],25.4%
same,inhibition,[3],39.2%
same,inhibition,[4],inactive
COc1cc(/C=C/C(=O)N2CCCN(S(=O)(=O)c3cccc4cnccc34)CC2)ccc1OCCO[N+](=O)[O-],CC50,[1],> 100 µM
same,Activity,[2],23.9%
same,inhibition,[3],45.8%
same,inhibition,[4],2.78%
COc1cc(/C=C/C(=O)N2CCCN(S(=O)(=O)c3cccc4cnccc34)CC2)ccc1OCCCCCCO[N+](=O)[O-],CC50,[1],> 100 µM
same,Activity,[2],24.3%
same,inhibition,[3],53.8%
same,inhibition,[4],56.1%
COc1cc(/C=C/C(=O)N2CCCN(S(=O)(=O)c3cccc4cnccc34)CC2)cc(OC)c1O,CC50,[1],> 100 µM
same,Activity,[2],90.9%
same,inhibition,[3],34.5%
same,inhibition,[4],0.07%
O=S(=O)(c1cccc2cnccc12)N1CCCN(C(c2ccccc2)c2ccccc2)CC1,CC50,[1],> 100 µM
same,Activity,[2],22.4%
same,inhibition,[3],inactive
same,inhibition,[4],inactive
COc1cc(/C=C/C(=O)N2CCCN(S(=O)(=O)c3cccc4cnccc34)CC2)cc(OC)c1OC(C)=O,CC50,[1],> 100 µM
same,Activity,[2],22.7%
same,inhibition,[3],45.9%
same,inhibition,[4],35%
COc1cc(/C=C/C(=O)N2CCCN(S(=O)(=O)c3cccc4c(O)nccc34)CC2)ccc1OC(C)=O,CC50,[1],> 20 µM
same,Activity,[2],48.7%
same,inhibition,[3],22.6%
same,inhibition,[4],25.9%
O=S(=O)(c1cccc2cnccc12)N1CCCN(C(c2ccc(F)cc2)c2ccc(F)cc2)CC1,CC50,[1],62 µM
same,Activity,[2],22.7%
same,inhibition,[3],inactive
same,inhibition,[4],inactive
CC1(C)C=Cc2cc(C(=O)N3CCCN(S(=O)(=O)c4cccc5cnccc45)CC3)ccc2O1,CC50,[1],> 100 µM
same,Activity,[2],48.7%
same,inhibition,[3],31.5%
same,inhibition,[4],inactive
O=C(CCCCC1CCSS1)N1CCCN(S(=O)(=O)c2cccc3c(O)nccc23)CC1 (stereo unspecified),CC50,[1],> 100 µM
same,Activity,[2],24.4%
same,inhibition,[3],inactive
same,inhibition,[4],inactive
CC(=O)Oc1ccccc1C(=O)OCCCCCC1CCSS1 (stereo unspecified),CC50,[1],9.19 µM
same,Activity,[2],28.5%
same,inhibition,[3],51.3%
same,inhibition,[4],27.8%
COc1cc(/C=C/C(=O)N2CCCN(S(=O)(=O)c3cccc4cnccc34)CC2)ccc1OCCCCO[N+](=O)[O-],CC50,[1],> 100 µM
same,Activity,[2],20.7%
same,inhibition,[3],57.5%
same,inhibition,[4],36.3%
COc1cc(/C=C/C(=O)N2CCCN(S(=O)(=O)c3cccc4cnccc34)CC2)ccc1OCCCCCO[N+](=O)[O-],CC50,[1],> 100 µM
same,Activity,[2],25.3%
same,inhibition,[3],34.9%
same,inhibition,[4],48.5%
O=S(=O)(c1cccc2cnccc12)N1CCN(C(c2ccc(F)cc2)c2ccc(F)cc2)CC1,CC50,[1],> 20 µM
same,Activity,[2],23.4%
same,inhibition,[3],inactive
same,inhibition,[4],inactive
O=C(OCCCCCC1CCSS1)N1CCCN(S(=O)(=O)c2cccc3cnccc23)CC1 (stereo unspecified),CC50,[1],> 100 µM
same,Activity,[2],91.4%
same,inhibition,[3],53.9%
same,inhibition,[4],86.7%
same,Cmax,[6],12200 ng/mL
same,AUC(0-t) at 24 h,[8],1940 ng·h/mL
same,AUC(0-inf),[10],1950 ng·h/mL
same,Tmax,[12],12 min
same,Vz/F,[14],1.3 L/kg
same,CLz/F,[16],93.3 mL/min/kg
same,Activity,[18],Non-toxic
same,Activity,[19],Non-toxic
same,Activity,[20],Non-toxic
same,Drug metabolism,[22],metabolite_detected
same,Drug metabolism,[23],metabolite_detected
same,Drug metabolism,[24],metabolite_detected
O=S(=O)(c1cccc2cnccc12)N1CCCNCC1 [FASUDIL],Activity,[2],99%
same,inhibition,[3],30.1%
same,inhibition,[4],82.6%
O=C(CCCCC1CCSS1)N1CCN(S(=O)(=O)c2cccc3cnccc23)CC1 (stereo unspecified),CC50,[1],> 100 µM
same,Activity,[2],51.2%
same,inhibition,[3],9.02%
same,inhibition,[4],inactive
O=C(CCCCC1CCSS1)N1CCN(C(c2ccccc2)c2ccccc2)CC1 (stereo unspecified),CC50,[1],63 µM
same,Activity,[2],50.5%
same,inhibition,[3],41%
same,inhibition,[4],49.6%
